# Results as given in patent US20240173346A1, “LINE-1 INHIBITORS TO TREAT CNS AND SYSTEMIC DISEASES” (TRANSPOSON THERAPEUTICS, INC., priority 2021, published 2024).
# Counter-ions that a name gives are not always drawn. Like-named read-outs stand apart in the source and are kept apart here.
# Test system: human LINE-1
# Assay: Human LINE-1 retrotransposition assay (HeLa cell-based dual-luciferase reporter, plasmid pYX017)
# Conditions: HeLa cells; for IC50: 72 h incubation
# Method: Islatravir and other compounds were tested for inhibition of retrotransposition activity of human LINE-1 in HeLa cells according to the following procedure.
# HeLa cervical cancer cells were cultivated at 37° C. in a humidified 5% CO2 incubator in Dulbecco's Modified Eagle's Medium (DMEM)—high glucose, with 4500 mg/L glucose, L-glutamine, sodium pyruvate and sodium bicarbonate (Sigma), supplemented with 10% of heat inactivated fetal bovine serum (Thermo Fisher).
# Assays were performed using reporter plasmid pYX017 as described (Xie, et al., 2011) with several modifications. The reporter assay was performed in 96-well white optical bottom plates. HeLa cells were seeded in wells 24 h prior to transfection and compound treatment so that cells were approximately 30% confluent on the day of transfection. Different cell plating densities were tested and a density of 2×10^3 cells was determined to be optimal.
# Compounds were resuspended in DMSO. Serial dilutions (1:3) were prepared in DMSO. Medium containing different concentrations of the compounds were prepared by adding 2 μl of the compound dilution to 1 ml of the culture medium. The final concentration of DMSO in the medium was 0.2%.
# FuGENE® HD transfection reagent (Promega, E2311, Lot 382574 and Lot 397842) was used to transfect the plasmids into the cells. The transfection reagent: DNA mixture was prepared in OpiMEM (Thermo Fisher) according to manufacturer's instructions. Different ratios of transfection reagent to DNA were tested and a ratio of 3:1 was determined to be optimal. Culture medium was removed from the cells and discarded. The transfection reagent: DNA mixture (5 μl) was mixed with the compound containing medium (100 μl/well) and this was added onto the cells of each well. Cells were incubated at 37° C./5% CO2 for different incubation time. A 72 h incubation time was determined to be optimal.
# Luciferase reporter activity was quantified with the Dual-Luciferase® Reporter Assay System (Promega) according to manufacturer's instructions for multiwell plates except that cells were lysed directly on the multiwell plate with 30 μl of the passive lysis buffer (PLB) for 20 min at room temperature, with gentle shaking to ensure complete cell lysis.
# Firefly and Renilla luciferase signals were measured using a SpectraMax i3x Multi-Mode Microplate Reader. Integration times of 100 ms and 10 ms were used to measure the Firefly and Renilla signals respectively. Relative L1 activity is calculated as Firefly/Renilla *1000 or Firefly/Renilla *10,000. Dose response inhibition data were fit to a four parameter logistic equation using non-linear regression (using Graphpad Prism 8), to determine IC50 values for each inhibitor.
# [1] = Homo sapiens, compounds of Table 1 (Table 4), read-out: Human LINE-1 IC50
# [2] = Homo sapiens, Firefly/Renilla luciferase, experiment 3, read-out: Human LINE-1 IC50, Exp. 3
# [3] = Homo sapiens, Firefly/Renilla luciferase, experiment 4, read-out: Human LINE-1 IC50, Exp. 4
# [4] = Homo sapiens, Firefly/Renilla luciferase, experiment 1, read-out: Human LINE-1 IC50, Exp. 1
# [5] = Homo sapiens, Firefly/Renilla luciferase, experiment 2, read-out: Human LINE-1 IC50, Exp. 2
# [6] = Homo sapiens, average of n = 2-4 experiments, read-out: Human LINE-1 IC50, Average
Compound,IC50 [2] [nM],IC50 [3] [nM],also measured
CC[C@]1(CO)O[C@@H](n2cc(C)c(=O)[nH]c2=O)C[C@@H]1O [compound 19],–,–,IC50 [1]: 2000 nM
C=C[C@]1(CO)O[C@@H](n2ccc(N)nc2=O)C[C@@H]1O [compound 18],–,–,IC50 [1]: 8 nM
Nc1nc(NC2CC2)c2ncn([C@H]3C=C[C@@H](CO)C3)c2n1 [Abacavir sulfate],16800,17400,–
C[C@H](Cn1cnc2c(N)ncnc21)OCP(=O)(O)O [Tenofovir],–,–,"IC50 (Firefly/Renilla luciferase, experiment 3, read-out: Human LINE-1 IC50, Exp. 3): 3310 nM; IC50 (Firefly/Renilla luciferase, experiment 4, read-out: Human LINE-1 IC50, Exp. 4): 2230 nM"
Nc1ccn([C@@H]2CS[C@H](CO)O2)c(=O)n1 [Lamivudine],570,340,IC50 [4]: 790 nM; IC50 [5]: 870 nM
"C#C[C@]1(CO)O[C@@H](n2cnc3c(N)nc(F)nc32)C[C@@H]1O [Islatravir, 2′-deoxy-4′-ethynyl-2-fluoroadenosine]",–,–,IC50 [6]: 1.3 nM
CC[C@]1(CO)O[C@@H](n2cnc3c(O)nc(N)nc32)C[C@@H]1O [compound 20],–,–,IC50 [1]: 3 nM
Nc1nc(=O)n([C@@H]2C=C[C@H](CO)O2)cc1F [Elvucitabine],80,110,IC50 [4]: 90 nM; IC50 [6]: 90 nM
CC(C)OC(=O)OCOP(=O)(CO[C@H](C)Cn1cnc2c(N)ncnc21)OCOC(=O)OC(C)C [Tenofovir disoproxil],140,260,–
Nc1ccn([C@H]2CO[C@@H](CO)S2)c(=O)n1 [Apricitabine],7690,5220,IC50 [6]: 6460 nM
Cc1cn([C@H]2C=C[C@@H](CO)O2)c(=O)[nH]c1=O [Stavudine],780,710,–
Nc1nc(=O)n([C@@H]2CS[C@H](CO)O2)cc1F [Emtricitabine],1390,1300,–
"C#C[C@@]1(CO)C=C[C@H](n2cc(C)c(=O)[nH]c2=O)O1 [Censavudine, 4′-ethynylstavudine]",80,–,human LINE-1 inhibitor activity compared to the other reverse transcriptase inhibitory drugs tested (comparison in words): unexpectedly better human LINE-1 inhibitor activity; IC50 [5]: 90 nM; IC50 [6]: 70 nM
C#C[C@]1(CO)O[C@@H](n2cc(C)c(N)nc2=O)C[C@@H]1O [compound 6],–,–,IC50 [1]: 18600 nM
